{"source": "patent US20230124142A1", "about": "“NEW THERAPEUTIC TARGETS WITH AN ANTI-INFLAMMATORY AND ANTI-INTERFERON EFFECT” (UNIVERSITÉ PARIS CITÉ, priority 2020, published 2023)", "key": {"[1]": {"system": "peripheral blood mononuclear cells (PBMCs)", "test": "Cell toxicity on PBMCs, ATP quantification with CellTiter Glo", "type": "cell-based, human", "conditions": "cGAMP 24 h"}, "[2]": {"system": "THP1-Dual human monocyte cell line", "test": "Cell toxicity on THP1-Dual, ATP quantification with CellTiter Glo", "type": "cell-based", "conditions": "cGAMP 24 h"}, "[3]": {"system": "neurones infected by the prions", "type": "cell-based"}, "activated immune cells": {"system": "activated immune cells", "test": "Secretion of inflammatory cytokines and interferons by activated immune cells placed in contact with ROCK inhibitor", "type": "cell-based", "conditions": "compared with activated immune cells not placed in contact with the inhibitor"}, "[4]": {"system": "THP1-Dual human monocyte cell line", "test": "Interferon response of cGAMP-activated THP1-Dual cells, luciferase", "conditions": "inhibitor 1 h before cGAMP 3 μg/ml, 24 h, luciferase (FIG. 22B, 23B)"}, "[5]": {"system": "peripheral blood mononuclear cells (PBMCs)", "test": "Interferon production by cGAMP-activated PBMCs, STING-37 reporter cell line", "conditions": "inhibitor 1 h before cGAMP 3 μg/ml, 24 h, STING-37 reporter (FIG. 22A, 23A)"}, "[6]": {"system": "HEK293 non-immune cell line", "test": "Interferon production by cGAMP-activated HEK293 non-immune cells (STING-37), luciferase", "conditions": "inhibitor at 1 μM (FIG. 23C)"}, "[7]": {"system": "peripheral blood mononuclear cells (PBMCs) of healthy donors", "test": "Secretion of inflammatory cytokines and interferons by PBMCs after TLR7/8 (R848) stimulation, LegendPlex"}, "[8]": {"system": "monocytes of healthy donors", "test": "Intracellular TNFα production in monocytes after TLR7/8 (Resiquimod-R848) stimulation, flow cytometry", "type": "cell-based, human", "conditions": "inhibitor 1 h before R848 (TLR7/8), 16 h, flow cytometry (FIG. 1, 2)", "protocol": "The cells were rinsed in PBS then incubated with a viability dye (Zombie Aqua, Biolegend) for 30 min at ambient temperature. After washing, the cells were resuspended in PBS containing 2% SVF and 2 mM EDTA then labelled with the APC Vio770 anti-CD14 (clone REA599) antibody from Miltenyi Biotec, used at 1/100°. […] Data acquisition was carried out on the […] flow cytometer using the Diva software (BD Biosciences, San Jose, Calif.). The Kaluza software was used to analyze the data."}, "[9]": {"system": "peripheral blood mononuclear cells (PBMCs) of healthy donors", "test": "Toxicity on PBMCs (CellTiter-Glo), TLR7/8 stimulation", "type": "cell-based, human", "conditions": "TLR 7/8 stimulation, 24 h, CellTiter-Glo (FIG. 4)", "protocol": "Test for toxicity of the compounds on the peripheral blood mononuclear cells (PBMCs).\n(§1) After 24 h of cell culture, the cell viability was determined using the CellTiter-Glo reagent (Promega), which evaluates the amount of ATP by luminescence using the EnSpire."}, "[10]": {"system": "monocytes of healthy donors", "test": "Intracellular TNFα production in monocytes after TLR4 (LPS) stimulation, flow cytometry", "type": "cell-based, human", "conditions": "inhibitor 1 h before LPS (TLR4) 100 ng/ml, 16 h, flow cytometry (FIG. 5)", "protocol": "(§2) The cells were rinsed in PBS then incubated with a viability dye (Zombie Aqua, Biolegend) for 30 min at ambient temperature. After washing, the cells were resuspended in PBS containing 2% SVF and 2 mM EDTA then labelled with the APC Vio770 anti-CD14 (clone REA599) antibody from Miltenyi Biotec, used at 1/100°. […] The cells were fixed for 20 min at ambient temperature with 250 μL Inside Fix solution then labelled in 100 μL Inside Perm solution containing the PE anti-TNFα (Miltenyi Biotec) and/or APC anti-IL-1β (Miltenyi Biotec) antibody at 1/50° for 30 min at ambient temperature. Data acquisition was carried out on the Canto II flow cytometer using the Diva software (BD Biosciences, San Jose, Calif.). The Kaluza software was used to analyze the data."}, "[11]": {"system": "monocytes of healthy donors", "test": "Intracellular TNFα production in monocytes after TLR2 (lipoteichoic acid, LTA) stimulation, flow cytometry", "type": "cell-based, human", "conditions": "inhibitor 1 h before LTA (TLR2) 1 μg/ml, 16 h, flow cytometry (FIG. 6)", "protocol": "as §2"}, "[12]": {"system": "peripheral blood mononuclear cells (PBMCs) of healthy donors", "test": "Secretion of inflammatory cytokines and interferons by PBMCs after TLR4 stimulation, LegendPlex", "type": "cell-based, human", "conditions": "24 h, LegendPlex (FIG. 7)"}, "[13]": {"system": "peripheral blood mononuclear cells (PBMCs) of healthy donors", "test": "Toxicity on PBMCs (CellTiter-Glo), TLR4 stimulation", "type": "cell-based, human", "conditions": "24 h, CellTiter-Glo (FIG. 8)", "protocol": "as §1"}, "[14]": {"system": "monocytes of healthy donors", "test": "Intracellular IL1β and TNFα in monocytes after inflammasome activation by uric acid crystals (MSU, gout model), flow cytometry", "type": "cell-based, human", "protocol": "The cells were rinsed in PBS then incubated with a viability dye (Zombie Aqua, Biolegend) for 30 min at ambient temperature. After washing, the cells were resuspended in PBS containing 2% SVF and 2 mM EDTA then labelled with the APC Vio770 anti-CD14 (clone REA599) antibody from Miltenyi Biotec, used at 1/100°. […] Data acquisition was carried out on the Canto II flow cytometer using the Diva software (BD Biosciences, San Jose, Calif.). The Kaluza software was used to analyze the data."}, "[15]": {"system": "plasmacytoid dendritic cells (pDC) of healthy donors", "test": "Intracellular IFNα and TNFα in plasmacytoid dendritic cells in response to HIV, flow cytometry", "type": "cell-based, human", "conditions": "AT-2-inactivated HIV-1MN, 16 h", "protocol": "The cells were rinsed in PBS then incubated with a viability dye (Zombie Aqua, Biolegend) for 30 min at ambient temperature. After washing, the cells were resuspended in PBS containing 2% SVF and 2 mM EDTA then labelled with the APC Vio770 anti-CD14 (clone REA599) antibody from Miltenyi Biotec, used at 1/100°. For the intracellular labelling of TNFα and IFNα, the “Inside Stain” kit (Miltenyi Biotec) was used according to the manufacturer's protocol. The cells were fixed for 20 min at ambient temperature with 250 μL Inside Fix solution then labelled in 100 μL Inside Perm solution containing the APC anti-TNFα (Miltenyi Biotec) and/or PE anti-IFNα (Miltenyi Biotec) antibody at 1/50° for 30 min at ambient temperature. Data acquisition was carried out on the Canto II flow cytometer using the Diva software (BD Biosciences, San Jose, Calif.). The Kaluza software was used to analyze the data."}, "[16]": {"system": "peripheral blood mononuclear cells (PBMCs) of healthy donors", "test": "Secretion of inflammatory cytokines and interferons by PBMCs in response to HIV, LegendPlex", "type": "cell-based, human", "conditions": "24 h, LegendPlex (FIG. 13)"}, "[17]": {"system": "peripheral blood mononuclear cells (PBMCs) of healthy donors", "test": "Toxicity on PBMCs (CellTiter-Glo), HIV", "type": "cell-based, human", "conditions": "PBMCs of healthy donors infected with HIV, 24 h, CellTiter-Glo (FIG. 14)", "protocol": "as §1"}, "[18]": {"system": "peripheral blood mononuclear cells (PBMCs) of healthy donors", "test": "Interferon secretion by R848-stimulated PBMCs, inhibitor before, during or after stimulation, STING-37 reporter cell line", "type": "cell-based, human"}, "[19]": {"system": "monocytes of patients suffering from juvenile idiopathic arthritis", "test": "Spontaneous TNFα production by monocytes of juvenile idiopathic arthritis patients, SIMOA (digital ELISA)", "type": "cell-based, human", "conditions": "inhibitor 24 h, SIMOA (FIG. 16)", "protocol": "The assay of the TNFα secreted by the monocytes of a patient suffering from juvenile idiopathic arthritis was carried out by SIMOA (digital ELISA)."}, "[20]": {"system": "immune cells (PBMCs and purified monocytes) of healthy donors", "test": "Production of inflammatory cytokines by PBMCs and purified monocytes after TLR2/4 stimulation by bacterial agents", "type": "cell-based, human", "conditions": "TLR 2/4 stimulation by lipoteichoic acid/LPS"}, "[21]": {"conditions": "PBMCs of healthy donors, inhibitor 1 h before R848 (TLR7/8), 24 h, LegendPlex (FIG. 3)"}}, "data": [{"compound": "Cc1cncc2cccc(S(=O)(=O)N3CCCNCC3C)c12", "note": "(stereo not drawn) [dimethylfasudil]", "values": [{"measurement": "viability of the PBMCs", "setting": "[1]", "value": "without affecting the viability"}, {"measurement": "viability of the THP1-Dual", "setting": "[2]", "value": "without affecting the viability"}, {"measurement": "level of TNFα in the culture medium", "setting": "[3]", "value": "re-establishes a “normal” level"}, {"measurement": "secretion of the inflammatory cytokines (TNFα, IL-1β, IL6, MCP1 (CCL2)) and of the interferons (IFN)", "setting": "activated immune cells", "value": "inhibits the secretion"}, {"measurement": "production of interferons (IFN) induced by the cGAMP", "setting": "[4]", "value": "blocks the production of interferons (IFN) induced by the cGAMP according to a dosage effect starting from 1 μM"}, {"measurement": "production of interferons (IFN) induced by the cGAMP", "setting": "[5]", "value": "blocks the production of interferons (IFN) induced by the cGAMP according to a dosage effect starting from 1 μM"}, {"measurement": "production of interferon induced by the STING ligand", "setting": "[6]", "value": "does not block"}, {"measurement": "production of TNFα and of pro-inflammatory cytokines such as IL-6, IL-1β and the interferons induced by the TLR7/8 stimulation", "setting": "[7]; human PBMCs incubated with inhibitor before R848 stimulation", "value": "inhibits the production"}]}, {"compound": "BX912", "values": [{"measurement": "intracellular production of inflammatory cytokines (TNFα)", "setting": "[8]", "value": "inhibits, according to a dosage effect"}, {"measurement": "toxicity on the immune cells (PBMCs)", "setting": "[9]", "value": "no toxicity"}, {"measurement": "production of inflammatory cytokines (TNFα)", "setting": "[10]", "value": "inhibits, according to a dosage effect"}, {"measurement": "production of inflammatory cytokines (TNFα)", "setting": "[11]", "value": "inhibits, according to a dosage effect"}, {"measurement": "secretion of the inflammatory cytokines (IL-6, IL-1β, TNFα, GM-CSF, IL-10)", "setting": "[12]", "value": "inhibits the secretion"}, {"measurement": "secretion of the interferons (IFNI2/3, IFNβ, IFNg)", "setting": "[12]", "value": "inhibits the secretion"}, {"measurement": "toxicity on PBMCs", "setting": "[13]", "value": "no toxicity"}, {"measurement": "production of inflammatory cytokines", "setting": "[14]; activation of the inflammasome by uric acid crystals (mimicking gout)", "value": "capable of inhibiting the production of inflammatory cytokines"}, {"measurement": "intracellular production of IL1β", "setting": "[14]; uric acid crystals (MSU) 50 μg/ml, 16 h, gout model (FIG. 9)", "value": "inhibits the intracellular production"}, {"measurement": "production of TNFα", "setting": "[14]; uric acid crystals (MSU) 50 μg/ml, 16 h, gout model (FIG. 10)", "value": "inhibits the production"}, {"measurement": "intracellular production of interferon IFNα", "setting": "[15]; flow cytometry (FIG. 11)", "value": "inhibits the intracellular production"}, {"measurement": "production of TNFα", "setting": "[15]; flow cytometry (FIG. 12)", "value": "inhibits the production"}, {"measurement": "secretion of the inflammatory cytokines (IL-6, IL-1β, TNFα, IP10)", "setting": "[16]", "value": "inhibits the secretion"}, {"measurement": "secretion of the interferons (IFNα2, IFNβ, IFNI1)", "setting": "[16]", "value": "inhibits the secretion"}, {"measurement": "toxicity on PBMCs", "setting": "[17]", "value": "no toxicity"}, {"measurement": "secretion of interferons", "setting": "[18]; inhibitor during the TLR 7/8 stimulation, STING-37 reporter (FIG. 15B)", "value": "blocking"}, {"measurement": "secretion of interferons", "setting": "[18]; inhibitor in a curative manner, 1 h after TLR 7/8 stimulation, STING-37 reporter (FIG. 15C)", "value": "blocking"}, {"measurement": "secretion of interferons", "setting": "[18]; inhibitor in a preventive manner, 1 h before TLR 7/8 stimulation, STING-37 reporter (FIG. 15A)", "value": "blocking"}, {"measurement": "spontaneous production of TNFα", "setting": "[19]", "value": "inhibits the spontaneous production"}, {"measurement": "production of inflammatory cytokines", "setting": "[20]", "value": "capable of inhibiting the production of inflammatory cytokines"}, {"measurement": "secretion of the inflammatory cytokines (IL-6, IL-1β, TNFα, IP10, GM-CSF, IL-10)", "setting": "[7]; [21]", "value": "inhibits the secretion"}, {"measurement": "secretion of the interferons (IFNI1, IFNI2/3, IFNβ, IFNg)", "setting": "[7]; [21]", "value": "inhibits the secretion"}]}]}
